How the values were obtained:
Format in all cases: cell-based, human
MMP-1 = assay: Production of MMP-1 in NHF cells treated with glycitein and stimulated THP-1 cell culture medium (MMP-1 assay kit); conditions: NHF cells pretreated with 10 μM glycitein, then stimulated THP-1 culture medium, FIG. 12
Method: THP-1 cells (acquired from Korean Cell Line Bank) were seeded onto a 6-well plate, with 5×10^5 cells per well, and cultured in an RPMI-1640 medium (acquired from Lonza) containing 10% (v/v) FBS, 100 U/mL penicillin and 100 μg/mL streptomycin under the condition of 37° C. and 5% CO2 for 24 hours. Also, NHF cells (acquired from Lonza) were seeded onto a 24-well plate, with 3×10^4 cells per well, and cultured in a DMEM medium (acquired from Lonza) containing 10% (v/v) FBS, 100 U/mL penicillin and 100 μg/mL streptomycin under the condition of 37° C. and 5% CO2 for 24 hours. […] The THP-1 cell culture medium was centrifuged at 1000 rpm for 3 minutes and the supernatant was taken. The NHF cells were treated with the supernatant. NHF cells treated with serum-free DMEM (acquired from Lonza) were used as an untreated group. After culturing for 24 hours, the concentration of MMP-1 in the NHF cells was measured using an MMP-1 assay kit and the ratio of the concentration of MMP-1 relative to the untreated group was calculated.

inflammatory cytokines = assay: Production of inflammatory cytokines in THP-1 cells treated with glycitein and stimulants (cytokine array kit); conditions: 10 μM glycitein, then 1 μg/mL LPS and 500 UNITs IFN-γ, FIG. 10
Method: THP-1 cells (acquired from Korean Cell Line Bank) were seeded onto a 6-well plate, with 5×10^5 cells per well, and treated with 10 μM glycitein. […] The cells untreated or treated only with the stimulant were used as a control group. The culture medium was centrifuged at 1000 rpm for 3 minutes and the supernatant was taken. The inflammatory cytokines included in the cell culture medium were identified using a cytokine array kit (R&D Systems).

THP-1 cells [1] = assay: Viability of THP-1 cells treated with glycitein, optionally with LPS and IFN-γ (cell counting kit); conditions: 24 hours
Method: (§1) THP-1 cells (acquired from Korean Cell Line Bank) were seeded onto a 96-well plate, with 3×10^4 cells per well, and cultured in an RPMI-1640 medium (acquired from Lonza) containing 10% (v/v) FBS, 100 U/mL penicillin and 100 μg/mL streptomycin under the condition of 37° C. and 5% CO2 for 24 hours. […] After treating with a cell counting kit reagent, with 1/10 the volume of each well, and culturing for 2 hours, O.D. value was measured using SpectraMax.

TNF-α [2] = assay: Production of TNF-α in THP-1 cells treated with glycitein and stimulants (TNF-α ELISA kit); conditions: THP-1 cells, 0, 0.1, 1 and 10 μM glycitein, then 1 μg/mL LPS and 500 UNITs IFN-γ, FIG. 9
Method: THP-1 cells (acquired from Korean Cell Line Bank) were seeded onto a 6-well plate, with 5×10^5 cells per well, and treated with 0, 0.1, 1 and 10 μM glycitein. […] After culturing for 24 hours, the culture medium was centrifuged at 1000 rpm for 3 minutes and the supernatant was taken. The concentration of TNF-α in the culture medium was determined using a TNF-α ELISA kit.

NHF cells = assay: Viability of NHF cells treated with glycitein and stimulants (cell counting kit); conditions: 0.1-10 μM glycitein together with 1 μg/mL LPS and 500 UNITs IFN-γ, 24 hours, FIG. 11
Method: as §1, with “NHF” for “THP-1”, “Lonza)” for “Korean Cell Line Bank)”, “1×10^4” for “3×10^4”, “a DMEM” for “an RPMI-1640”, “hours, then” for “hours,”

TNF-α [3] = assay: Production of TNF-α in THP-1 cells treated with LPS and/or IFN-γ (TNF-α ELISA kit); conditions: IFN-γ alone, all concentrations (250, 500, 1000 UNITs), FIG. 1
Method: THP-1 cells (acquired from Korean Cell Line Bank) were seeded onto a 6-well plate, with 5×10^5 cells per well, and cultured in an RPMI-1640 medium (acquired from Lonza) containing 10% (v/v) FBS, 100 U/mL penicillin and 100 μg/mL streptomycin under the condition of 37° C. and 5% CO2 for 24 hours. Subsequently, the cells were cultured for 24 hours after treating with three kinds of LPS derived from Escherichia coli (E. coli O111:B4, E. coli O55:B5 and E. coli EH100) and two kinds of LPS derived from Salmonella [Salmonella typhosa (S. typhosa) and Salmonella typhimurium (S. typhimurium), acquired from Sigma Aldrich], at concentrations of 0, 0.1 and 1 μg/mL, and with 0, 250, 500 and 1000 UNITs of INF-γ (acquired from Sigma Aldrich). Subsequently, the culture medium was centrifuged at 1000 rpm for 3 minutes and the supernatant was taken and then the concentration of TNF-α in the supernatant was determined using a TNF-α ELISA kit.

THP-1 cells [4] = assay: Viability of THP-1 cells treated with LPS and IFN-γ (cell counting kit)
Method: as §1, with “hours, cell viability was determined by measuring” for “hours,”, “value” for “value was measured”

## COc1cc2c(=O)c(-c3ccc(O)cc3)coc2cc1O [glycitein]
MMP-1
  production of MMP-1: decreased production of MMP-1
Inflammatory cytokines
  amount of the inflammatory cytokines produced upon treatment with the stimulant: decreased
THP-1 cells [1]; glycitein alone, 10 μM or lower, FIG. 7
  cytotoxicity: no cytotoxicity
THP-1 cells [1]; glycitein together with 1 μg/mL LPS and 500 UNITs IFN-γ, FIG. 8
  cytotoxicity: no cytotoxicity
TNF-α [2]
  concentration of TNF-α: lower as the concentration of glycitein increased
NHF cells
  cytotoxicity: no cytotoxicity

B1: IFN-γ: interferon-γ acquired from Sigma Aldrich, enhances inflammatory stimulation by LPS (protein, UniProt P01579 24-161, looked up)
Interferon gamma: QDPYVKEAENLKKYFNAGHSDVADNGTLFLGILKNWKEESDRKIMQSQIVSFYFKLFKNFKDDQSIQKSVETIKEDMNVKFFNSNKKKRDDFEKLTNYSVTDLNVQRKAIHELIQVMAELSPAAKTGKRKRSQMLFRG
TNF-α [3]
  effect on the production of TNF-α: no effect
THP-1 cells [4]
  cytotoxicity: no cytotoxicity

From patent US9051596B2, “Method for screening inhibitory substances to inflammatory skin-aging” (AMOREPACIFIC CORPORATION, priority 2011, dated 2015)
